We go through twelve molecules from patent publication US8003660B2, “Modulators of muscarinic receptors” (Vertex Pharmaceuticals Incorporated, priority 2006, dated 2011).

Format in all cases: cell-based
For assay [1], the target named is T1, M1 muscarinic receptor (Homo sapiens, UniProt P11229).
T1 construct: expressed in transfected cells; host or cells: CHO (M1-CHO)
T1 sequence (P11229 1-460): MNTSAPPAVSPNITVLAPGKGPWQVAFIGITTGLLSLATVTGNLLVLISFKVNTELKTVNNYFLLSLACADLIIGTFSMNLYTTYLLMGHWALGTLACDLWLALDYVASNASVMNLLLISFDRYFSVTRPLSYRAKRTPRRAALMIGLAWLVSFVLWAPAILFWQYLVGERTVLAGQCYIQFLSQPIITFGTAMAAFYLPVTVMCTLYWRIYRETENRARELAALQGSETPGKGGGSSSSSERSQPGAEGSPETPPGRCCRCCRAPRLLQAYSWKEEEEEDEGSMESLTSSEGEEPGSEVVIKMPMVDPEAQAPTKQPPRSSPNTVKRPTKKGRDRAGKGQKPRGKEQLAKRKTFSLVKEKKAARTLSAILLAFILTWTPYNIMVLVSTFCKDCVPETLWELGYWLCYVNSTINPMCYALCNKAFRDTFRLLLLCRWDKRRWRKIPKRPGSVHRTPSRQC
Kind of assay: Functional mobilization of intracellular calcium (FLIPR) in CHO cells expressing M1. Particulars: for M1 Activity: CHO cells expressing M1, FLIPR calcium assay; for Emax: CHO, 100% efficacy = maximum response obtained with the Carbachol control. The method, boiled down:
(§1)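 Recombinant CHO cells loaded with Fluo-3 AM or Calcium 3 dye in pH 7.4 buffer containing 1 mM probenecid, with 0.5% final DMSO. For agonism, compound is added directly. For inhibition, it is preincubated 15 min, or co-applied, before carbachol at EC80. FLIPR fluorescence (ex 488, em 540 nm) is recorded for 60 s.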
For orientation: Calcium assays in cells follow changes in intracellular calcium, usually with a dye or a luminescent sensor.

The target of assay [2] is T2, M2 muscarinic receptor (Homo sapiens, UniProt P08172).
T2 construct: expressed in transfected cells; host or cells: CHO (M2-CHO)
T2 sequence (P08172 1-466): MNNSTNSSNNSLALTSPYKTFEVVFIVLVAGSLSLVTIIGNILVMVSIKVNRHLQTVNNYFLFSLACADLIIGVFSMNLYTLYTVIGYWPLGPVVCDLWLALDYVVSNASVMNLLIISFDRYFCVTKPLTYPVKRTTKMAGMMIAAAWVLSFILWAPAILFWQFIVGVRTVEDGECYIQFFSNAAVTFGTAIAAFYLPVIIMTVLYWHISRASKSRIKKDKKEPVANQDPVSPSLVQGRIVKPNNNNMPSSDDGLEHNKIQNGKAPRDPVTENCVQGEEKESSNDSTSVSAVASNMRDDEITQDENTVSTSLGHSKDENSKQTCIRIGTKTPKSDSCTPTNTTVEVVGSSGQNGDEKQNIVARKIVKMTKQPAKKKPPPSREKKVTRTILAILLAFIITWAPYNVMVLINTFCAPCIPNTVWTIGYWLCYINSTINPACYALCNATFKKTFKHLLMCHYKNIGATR
Kind of assay: Functional mobilization of intracellular calcium (FLIPR) in CHO cells expressing M2. Particulars: for M2 Activity: CHO cells expressing M2, FLIPR calcium assay; for Emax: CHO, 100% efficacy = maximum response obtained with the Carbachol control. The method, boiled down:
as §1

In assay [3] the target is T3, M3 muscarinic receptor (Homo sapiens, UniProt P20309).
T3 construct: expressed in transfected cells; host or cells: CHO (M3-CHO)
Kind of assay: Functional mobilization of intracellular calcium (FLIPR) in CHO cells expressing M3. Particulars: for M3 Activity: CHO cells expressing M3, FLIPR calcium assay; for Emax: CHO, 100% efficacy = maximum response obtained with the Carbachol control. In outline:
as §1

Assay [4] concerns the target T4, M4 muscarinic receptor (Homo sapiens, UniProt P08173).
T4 construct: expressed in transfected cells; host or cells: CHO (M4-CHO)
T4 sequence (P08173 1-479): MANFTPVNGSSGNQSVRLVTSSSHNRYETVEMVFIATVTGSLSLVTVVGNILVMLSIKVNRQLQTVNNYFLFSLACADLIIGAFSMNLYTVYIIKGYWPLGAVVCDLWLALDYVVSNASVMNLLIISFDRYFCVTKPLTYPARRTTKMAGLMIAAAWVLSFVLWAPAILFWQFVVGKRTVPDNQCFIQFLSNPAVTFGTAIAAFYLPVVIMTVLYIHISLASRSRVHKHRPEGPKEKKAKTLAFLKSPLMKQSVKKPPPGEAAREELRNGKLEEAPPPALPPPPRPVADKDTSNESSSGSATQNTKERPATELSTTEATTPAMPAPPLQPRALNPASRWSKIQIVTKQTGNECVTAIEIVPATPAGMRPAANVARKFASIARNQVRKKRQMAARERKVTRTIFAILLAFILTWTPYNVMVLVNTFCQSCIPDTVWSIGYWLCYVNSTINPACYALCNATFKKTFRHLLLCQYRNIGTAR
Put plainly: Functional mobilization of intracellular calcium (FLIPR) in CHO cells expressing M4. Particulars: for M4 Activity: CHO cells expressing M4, FLIPR calcium assay; for Emax: CHO, 100% efficacy = maximum response obtained with the Carbachol control. In outline: as §1

T3 sequence (P20309 whole entry): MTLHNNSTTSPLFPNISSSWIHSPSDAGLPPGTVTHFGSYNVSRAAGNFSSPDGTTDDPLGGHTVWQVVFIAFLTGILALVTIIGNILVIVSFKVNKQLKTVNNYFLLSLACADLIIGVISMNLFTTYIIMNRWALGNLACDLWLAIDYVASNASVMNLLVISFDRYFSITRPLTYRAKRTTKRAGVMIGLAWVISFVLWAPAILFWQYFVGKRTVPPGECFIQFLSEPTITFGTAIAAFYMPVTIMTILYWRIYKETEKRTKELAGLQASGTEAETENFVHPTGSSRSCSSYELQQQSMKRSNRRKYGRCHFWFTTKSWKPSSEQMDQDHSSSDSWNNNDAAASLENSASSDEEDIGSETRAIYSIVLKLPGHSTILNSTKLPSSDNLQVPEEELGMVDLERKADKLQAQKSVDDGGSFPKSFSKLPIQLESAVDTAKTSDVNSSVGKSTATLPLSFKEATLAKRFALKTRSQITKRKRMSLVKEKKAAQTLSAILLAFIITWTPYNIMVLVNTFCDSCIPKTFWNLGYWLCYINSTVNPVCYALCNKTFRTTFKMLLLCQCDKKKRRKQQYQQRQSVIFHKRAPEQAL

A word on the Emax: it is the greatest response seen or fitted, relative to the assay's reference. Take `C#CCNC(=O)CN1CCC2(CC1)C[C@H](NC(C)=O)c1ccccc12` [compound 262]: in assay [1], the “M1 Activity” value is reported as “+ (activity was measured to be greater than 5.0 μM)” and the Emax is below 25%. In addition, in assay [2], the “M2 Activity” value is on record as “+ (activity was measured to be greater than 5.0 μM)” and the Emax was below 25%. Further, in assay [3], the “M3 Activity” value is listed as “+ (activity was measured to be greater than 5.0 μM)” and the maximal response (Emax) was below 25%. Besides, in assay [4], the “M4 Activity” value is listed as “+ (activity was measured to be greater than 5.0 μM)” and the maximum response (Emax) is below 25%.

On to `C=CCC(C)(C)CN1CCC2(CC1)C[C@H](NC(C)=O)c1ccccc12` [compound 263], for which, in assay [1], the “M1 Activity” value is given as “+ (activity was measured to be greater than 5.0 μM)” and the Emax was 25 to 100%. Also, in assay [2], the “M2 Activity” value is recorded as “+ (activity was measured to be greater than 5.0 μM)” and the maximum response (Emax) is below 25%. Moreover, in assay [3], the “M3 Activity” value is reported as “+ (activity was measured to be greater than 5.0 μM)” and the Emax was below 25%. In assay [4], the “M4 Activity” value is reported as “++ (activity was measured to be from 2.0 μM to 5.0 μM)” and the maximal effect (Emax) is below 25%.

`CCCC(=O)N[C@H]1CC2(CCN(CCC(C)(C)C)CC2)c2ccccc21` [compound 264]: in assay [1], the “M1 Activity” value is listed as “+ (activity was measured to be greater than 5.0 μM)” and the Emax is below 25%. In addition, in assay [2], the “M2 Activity” value is “+ (activity was measured to be greater than 5.0 μM)” and the Emax is below 25%. In assay [3], the “M3 Activity” value was “+ (activity was measured to be greater than 5.0 μM)” and the maximal effect (Emax) is below 25%. Besides, in assay [4], the “M4 Activity” value is recorded as “+++ (activity was measured to be less than 2.0 μM)” and the maximal response (Emax) fell in the range of 25 to 100%.

Regarding `CC(C)CCN1CCC2(CC1)C[C@H](NC(=O)c1ccoc1)c1ccccc12` [compound 267], in assay [1], the “M1 Activity” value was “+ (activity was measured to be greater than 5.0 μM)” and the Emax is below 25%. In assay [2], the “M2 Activity” value is given as “+ (activity was measured to be greater than 5.0 μM)” and the Emax was below 25%. Moreover, in assay [3], the “M3 Activity” value is listed as “+ (activity was measured to be greater than 5.0 μM)” and the maximum response (Emax) was below 25%. Besides, in assay [4], the “M4 Activity” value is on record as “+ (activity was measured to be greater than 5.0 μM)” and the maximal effect (Emax) was below 25%.

As for `CCC(CC)(CCC#N)CN1CCC2(CC1)C[C@H](NC(C)=O)c1ccccc12` [compound 269], in assay [1], the “M1 Activity” value is on record as “+ (activity was measured to be greater than 5.0 μM)” and the Emax was 25 to 100%. Also, in assay [2], the “M2 Activity” value is listed as “+ (activity was measured to be greater than 5.0 μM)” and the Emax is below 25%. For the same molecule, in assay [3], the “M3 Activity” value is given as “+ (activity was measured to be greater than 5.0 μM)” and the Emax was below 25%. In assay [4], the “M4 Activity” value was “++ (activity was measured to be from 2.0 μM to 5.0 μM)” and the maximal response (Emax) was in the range of 25 to 100%.

Take `CCC(=O)N[C@H]1CC2(CCN(C(=O)OC(C)(C)C)CC2)c2ccccc21` [compound 271]: in assay [1], the “M1 Activity” value is “+ (activity was measured to be greater than 5.0 μM)” and the Emax was below 25%. In assay [2], the “M2 Activity” value was “+ (activity was measured to be greater than 5.0 μM)” and the maximal effect (Emax) was below 25%. Moreover, in assay [3], the “M3 Activity” value was “+ (activity was measured to be greater than 5.0 μM)” and the Emax is below 25%. Further, in assay [4], the “M4 Activity” value is given as “+ (activity was measured to be greater than 5.0 μM)” and the Emax is below 25%.

For `CC(=O)N[C@H]1CCC2(CCN(C(=O)OC(C)(C)C)CC2)c2ccccc21` [compound 272], in assay [1], the “M1 Activity” value is “+ (activity was measured to be greater than 5.0 μM)” and the maximum response (Emax) is below 25%. For the same molecule, in assay [2], the “M2 Activity” value is listed as “+ (activity was measured to be greater than 5.0 μM)” and the Emax was below 25%. Further, in assay [3], the “M3 Activity” value is recorded as “+ (activity was measured to be greater than 5.0 μM)” and the maximal response (Emax) was below 25%. Besides, in assay [4], the “M4 Activity” value is reported as “+ (activity was measured to be greater than 5.0 μM)” and the maximal response (Emax) is below 25%.

As to `CC(=O)N[C@H]1CC2(CCN(CC(C)CCC=C(C)C)CC2)c2ccccc21` (stereo partly drawn) [compound 273], in assay [1], the “M1 Activity” value was “+++ (activity was measured to be less than 2.0 μM)” and the Emax fell in the range of 25 to 100%. In assay [2], the “M2 Activity” value is listed as “+ (activity was measured to be greater than 5.0 μM)” and the Emax was below 25%. In addition, in assay [3], the “M3 Activity” value is “+ (activity was measured to be greater than 5.0 μM)” and the Emax was below 25%. In assay [4], the “M4 Activity” value is on record as “+++ (activity was measured to be less than 2.0 μM)” and the Emax fell in the range of 25 to 100%.

Take `CC(C)(C)OC(=O)N1CCC2(CC1)C[C@H](NC(=O)N1CCCC1)c1ccccc12` [compound 276]: in assay [1], the “M1 Activity” value is reported as “+ (activity was measured to be greater than 5.0 μM)” and the Emax is below 25%. In assay [2], the “M2 Activity” value is listed as “+ (activity was measured to be greater than 5.0 μM)” and the maximal response (Emax) is below 25%. In assay [3], the “M3 Activity” value is listed as “+ (activity was measured to be greater than 5.0 μM)” and the maximum response (Emax) was below 25%. Besides, in assay [4], the “M4 Activity” value is given as “+ (activity was measured to be greater than 5.0 μM)” and the maximum response (Emax) was below 25%.

As to `CC(=O)N[C@H]1CC2(CCN(CCC(C)C)CC2)c2ccccc21` [compound 277], in assay [1], the “M1 Activity” value is reported as “++ (activity was measured to be from 2.0 μM to 5.0 μM)” and the maximal effect (Emax) lay in the range of 25 to 100%. In assay [2], the “M2 Activity” value is recorded as “+ (activity was measured to be greater than 5.0 μM)” and the maximal response (Emax) is below 25%. For the same molecule, in assay [3], the “M3 Activity” value is recorded as “+ (activity was measured to be greater than 5.0 μM)” and the maximal effect (Emax) was below 25%. For the same molecule, in assay [4], the “M4 Activity” value is recorded as “+++ (activity was measured to be less than 2.0 μM)” and the maximal effect (Emax) lay within 25 to 100%.

Turning to `CC(C)(C)OC(=O)N1CCC2(CC1)C[C@H](NC(=O)C1CC1)c1ccccc12` [compound 279], in assay [1], the “M1 Activity” value is on record as “+ (activity was measured to be greater than 5.0 μM)” and the maximal response (Emax) is below 25%. For the same molecule, in assay [2], the “M2 Activity” value is recorded as “+ (activity was measured to be greater than 5.0 μM)” and the Emax is below 25%. For the same molecule, in assay [3], the “M3 Activity” value is recorded as “+ (activity was measured to be greater than 5.0 μM)” and the maximum response (Emax) was below 25%. In addition, in assay [4], the “M4 Activity” value is on record as “+ (activity was measured to be greater than 5.0 μM)” and the maximum response (Emax) was below 25%.

In the case of `CC(=O)N[C@@H]1CCC2(CCN(C(=O)OC(C)(C)C)CC2)c2ccccc21` [compound 280], in assay [1], the “M1 Activity” value is “+ (activity was measured to be greater than 5.0 μM)” and the Emax was below 25%. Moreover, in assay [2], the “M2 Activity” value is given as “+ (activity was measured to be greater than 5.0 μM)” and the Emax was below 25%. Further, in assay [3], the “M3 Activity” value is “+ (activity was measured to be greater than 5.0 μM)” and the Emax was below 25%. In assay [4], the “M4 Activity” value is on record as “+ (activity was measured to be greater than 5.0 μM)” and the Emax was below 25%.
